Laboratory results taken from ChEMBL document CHEMBL1201862, “PubChem BioAssay data set” (2004).
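All cell lines were grown in 96-well plates and treated with compound for 48 hours. At the GI50, growth is halved.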 The source made the active and inactive calls. Cut-off read from the data, not from the text of the source: active = GI50 up to about 1.1 µM and inactive = higher.

Assays:
Assay in all cases: NCI anticancer screen, dose series, 48 h
786-0 = test system: 786-0
HT-29 = test system: HT-29
K562 = test system: K562
A498 = test system: A498
DU-145 = test system: DU-145
SN12C = test system: SN12C
SNB-75 = test system: SNB-75
CAKI-1 = test system: CAKI-1
SK-OV-3 = test system: SK-OV-3
HCC 2998 = test system: HCC 2998
BT-549 = test system: BT-549
MDA-MB-231 = test system: MDA-MB-231
Hs-578T = test system: Hs-578T
HCT-116 = test system: HCT-116
OVCAR-5 = test system: OVCAR-5
U-251 = test system: U-251
LOX IMVI = test system: LOX IMVI
MOLT-4 = test system: MOLT-4
SNB-19 = test system: SNB-19
OVCAR-4 = test system: OVCAR-4
NCI/ADR-RES = test system: NCI/ADR-RES
PC-3 = test system: PC-3
MDA-MB-435 = test system: MDA-MB-435
RPMI-8226 = test system: RPMI-8226
ACHN = test system: ACHN
HL-60 = test system: HL-60
OVCAR-8 = test system: OVCAR-8
SK-MEL-5 = test system: SK-MEL-5
Malme-3M = test system: Malme-3M
UACC-257 = test system: UACC-257
T47D = test system: T47D
KM12 = test system: KM12
SR = test system: SR
IGROV-1 = test system: IGROV-1
NCI-H226 = test system: NCI-H226
MDA-N = test system: MDA-N
SF-268 = test system: SF-268
MCF7 = test system: MCF7
HCT-15 = test system: HCT-15
SK-MEL-2 = test system: SK-MEL-2
NCI-H522 = test system: NCI-H522
SK-MEL-28 = test system: SK-MEL-28
CCRF-CEM = test system: CCRF-CEM
SF-539 = test system: SF-539
RXF 393 = test system: RXF 393
HOP-92 = test system: HOP-92
UACC-62 = test system: UACC-62
COLO 205 = test system: COLO 205
TK-10 = test system: TK-10
UO-31 = test system: UO-31
SW-620 = test system: SW-620
SF-295 = test system: SF-295
HOP-62 = test system: HOP-62
A549 = test system: A549
OVCAR-3 = test system: OVCAR-3
NCI-H460 = test system: NCI-H460
NCI-H23 = test system: NCI-H23
EKVX = test system: EKVX
M14 = test system: M14
M19-MEL = test system: M19-MEL
SNB-78 = test system: SNB-78
DMS-114 = test system: DMS-114
DLD-1 = test system: DLD-1

CC(C)(C)NCCC(O)c1cc(C(F)(F)F)nc2c(C(F)(F)F)cccc12 (stereo unspecified)
GI50 (786-0): 6.98 µM (inactive)
GI50 (HT-29): 6.08 µM (inactive)
GI50 (K562): 5.14 µM (inactive)
GI50 (A498): 15 µM (inactive)
GI50 (DU-145): 2.38 µM (inactive)
GI50 (SN12C): 7.71 µM (inactive)
GI50 (SNB-75): 11.1 µM (inactive)
GI50 (CAKI-1): 4.25 µM (inactive)
GI50 (SK-OV-3): 16.2 µM (inactive)
GI50 (HCC 2998): 2.43 µM (inactive)
GI50 (BT-549): 8.11 µM (inactive)
GI50 (MDA-MB-231): 9.4 µM (inactive)
GI50 (Hs-578T): 14.2 µM (inactive)
GI50 (HCT-116): 5.07 µM (inactive)
GI50 (OVCAR-5): 15.2 µM (inactive)
GI50 (U-251): 7.53 µM (inactive)
GI50 (LOX IMVI): 1.12 µM (inactive)
GI50 (MOLT-4): 4.12 µM (inactive)
GI50 (SNB-19): 13.6 µM (inactive)
GI50 (OVCAR-4): 12.3 µM (inactive)
GI50 (NCI/ADR-RES): 5.97 µM (inactive)
GI50 (PC-3): 8.57 µM (inactive)
GI50 (MDA-MB-435): 12.9 µM (inactive)
GI50 (RPMI-8226): 4.58 µM (inactive)
GI50 (ACHN): 8.3 µM (inactive)
GI50 (HL-60): 6.37 µM (inactive)
GI50 (OVCAR-8): 7.53 µM (inactive)
GI50 (SK-MEL-5): 12.5 µM (inactive)
GI50 (Malme-3M): 11.6 µM (inactive)
GI50 (UACC-257): 13.5 µM (inactive)
GI50 (T47D): 14.3 µM (inactive)
GI50 (KM12): 2.77 µM (inactive)
GI50 (SR): 3.62 µM (inactive)
GI50 (IGROV-1): 10.3 µM (inactive)
GI50 (NCI-H226): 17.3 µM (inactive)
GI50 (MDA-N): 11.5 µM (inactive)
GI50 (SF-268): 11.4 µM (inactive)
GI50 (MCF7): 12.6 µM (inactive)
GI50 (HCT-15): 6.41 µM
GI50 (SK-MEL-2): 11.2 µM (inactive)
GI50 (NCI-H522): 11.7 µM (inactive)
GI50 (SK-MEL-28): 15.7 µM (inactive)
GI50 (CCRF-CEM): 5.57 µM (inactive)
GI50 (SF-539): 14.7 µM (inactive)
GI50 (RXF 393): 6.53 µM (inactive)
GI50 (HOP-92): 12.3 µM (inactive)
GI50 (UACC-62): 12.6 µM (inactive)
GI50 (COLO 205): 10.7 µM (inactive)
GI50 (TK-10): 12.2 µM (inactive)
GI50 (UO-31): 0.502 µM (active)
GI50 (SW-620): 18 µM (inactive)
GI50 (SF-295): 8.75 µM (inactive)
GI50 (HOP-62): 4.67 µM (inactive)
GI50 (A549): 4.38 µM (inactive)
GI50 (OVCAR-3): 8.38 µM (inactive)
GI50 (NCI-H460): 4.83 µM (inactive)
GI50 (NCI-H23): 4.26 µM (inactive)
GI50 (EKVX): 14 µM (inactive)
GI50 (M14): 7.83 µM (inactive)

COC1=C(C)C(=O)c2c(c(COC(N)=O)c3n2CC(OC(C)=O)C3OC(C)=O)C1=O (stereo unspecified)
GI50 (786-0): < 0.0116 µM (active)
GI50 (HT-29): 0.036 µM (active)
GI50 (K562): 0.0191 µM (active)
GI50 (A498): 0.593 µM (active)
GI50 (DU-145): 0.0251 µM (active)
GI50 (SN12C): 0.0944 µM (active)
GI50 (SNB-75): 0.208 µM (active)
GI50 (CAKI-1): < 0.01 µM (active)
GI50 (SK-OV-3): 0.41 µM (active)
GI50 (HCC 2998): 0.111 µM (active)
GI50 (BT-549): 0.296 µM (active)
GI50 (MDA-MB-231): 0.2 µM (active)
GI50 (Hs-578T): 0.239 µM (active)
GI50 (HCT-116): 0.0204 µM (active)
GI50 (OVCAR-5): 0.267 µM (active)
GI50 (U-251): 0.0944 µM (active)
GI50 (LOX IMVI): 0.0294 µM (active)
GI50 (MOLT-4): 0.242 µM (active)
GI50 (SNB-19): 0.433 µM (active)
GI50 (OVCAR-4): 0.279 µM (active)
GI50 (NCI/ADR-RES): 0.127 µM (active)
GI50 (PC-3): 0.131 µM (active)
GI50 (MDA-MB-435): 0.165 µM (active)
GI50 (RPMI-8226): 0.0577 µM (active)
GI50 (ACHN): < 0.01 µM (active)
GI50 (HL-60): < 0.0192 µM (active)
GI50 (OVCAR-8): 0.0789 µM (active)
GI50 (SK-MEL-5): 0.133 µM (active)
GI50 (Malme-3M): 0.0493 µM (active)
GI50 (UACC-257): 0.115 µM (active)
GI50 (T47D): 0.757 µM (active)
GI50 (KM12): 0.228 µM (active)
GI50 (SR): < 0.01 µM (active)
GI50 (IGROV-1): 0.0785 µM (active)
GI50 (NCI-H226): 0.297 µM (active)
GI50 (MDA-N): 0.126 µM (active)
GI50 (SF-268): 0.0766 µM (active)
GI50 (MCF7): 0.0301 µM (active)
GI50 (HCT-15): 0.0126 µM
GI50 (SK-MEL-2): 0.191 µM (active)
GI50 (NCI-H522): 0.0137 µM (active)
GI50 (SK-MEL-28): 0.311 µM (active)
GI50 (CCRF-CEM): 0.153 µM (active)
GI50 (SF-539): 0.0239 µM (active)
GI50 (RXF 393): 0.152 µM (active)
GI50 (HOP-92): 0.186 µM (active)
GI50 (UACC-62): 0.0857 µM (active)
GI50 (COLO 205): 0.116 µM (active)
GI50 (TK-10): 0.388 µM (active)
GI50 (UO-31): 0.15 µM (active)
GI50 (SW-620): 0.0206 µM (active)
GI50 (SF-295): 0.0631 µM (active)
GI50 (HOP-62): 0.126 µM (active)
GI50 (A549): 0.136 µM (active)
GI50 (OVCAR-3): 0.09 µM (active)
GI50 (NCI-H460): < 0.01 µM (active)
GI50 (NCI-H23): 0.0436 µM (active)
GI50 (EKVX): 0.202 µM (active)
GI50 (M14): 0.0977 µM (active)

O=C(/C=C1\NC(=O)c2ccccc2N1)c1ccncc1
GI50 (786-0): > 100 µM (inactive)
GI50 (HT-29): > 100 µM (inactive)
GI50 (M19-MEL): > 100 µM (inactive)
GI50 (K562): > 100 µM (inactive)
GI50 (A498): > 100 µM (inactive)
GI50 (SNB-78): > 100 µM (inactive)
GI50 (SN12C): > 100 µM (inactive)
GI50 (SNB-75): 45.9 µM (inactive)
GI50 (CAKI-1): > 100 µM (inactive)
GI50 (SK-OV-3): > 100 µM (inactive)
GI50 (HCC 2998): > 100 µM (inactive)
GI50 (HCT-116): > 100 µM (inactive)
GI50 (OVCAR-5): > 100 µM (inactive)
GI50 (U-251): > 100 µM (inactive)
GI50 (MOLT-4): > 100 µM (inactive)
GI50 (SNB-19): > 100 µM (inactive)
GI50 (OVCAR-4): > 100 µM (inactive)
GI50 (RPMI-8226): > 100 µM (inactive)
GI50 (ACHN): > 100 µM (inactive)
GI50 (HL-60): > 100 µM (inactive)
GI50 (OVCAR-8): > 100 µM (inactive)
GI50 (SK-MEL-5): > 100 µM (inactive)
GI50 (Malme-3M): > 100 µM (inactive)
GI50 (UACC-257): > 100 µM (inactive)
GI50 (SR): > 100 µM (inactive)
GI50 (IGROV-1): > 100 µM (inactive)
GI50 (NCI-H226): > 100 µM (inactive)
GI50 (SF-268): > 100 µM (inactive)
GI50 (HCT-15): > 100 µM
GI50 (SK-MEL-2): > 100 µM (inactive)
GI50 (NCI-H522): > 100 µM (inactive)
GI50 (SK-MEL-28): > 100 µM (inactive)
GI50 (DMS-114): > 100 µM (inactive)
GI50 (CCRF-CEM): > 100 µM (inactive)
GI50 (UACC-62): > 100 µM (inactive)
GI50 (COLO 205): > 100 µM (inactive)
GI50 (TK-10): > 100 µM (inactive)
GI50 (UO-31): > 100 µM (inactive)
GI50 (SW-620): > 100 µM (inactive)
GI50 (SF-295): > 100 µM (inactive)
GI50 (HOP-62): > 100 µM (inactive)
GI50 (A549): > 100 µM (inactive)
GI50 (DLD-1): > 100 µM (inactive)
GI50 (OVCAR-3): > 100 µM (inactive)
GI50 (NCI-H460): > 100 µM (inactive)
GI50 (NCI-H23): > 100 µM (inactive)
GI50 (EKVX): > 100 µM (inactive)
GI50 (M14): > 100 µM (inactive)
